# According to patent publication US20140161720A1, “TREATMENT OF ANGIOGENIC- OR VASCULAR-ASSOCIATED DISEASES” (THE GENERAL HOSPITAL CORPORATION, priority 2011, published 2014):
# Entries after “also recorded” stand apart in the source; their conditions may differ.
# Key:
# [1] = Toxicity of intraperitoneal DAL in SCID mice; type: in vivo; settings: intraperitoneal doses of up to 100 mg/kg
# Procedure: A cell-based readout system was used for compound selection. For the cell-based screening, an optimal cell density of 10,000 breast cancer MDA-MB-231 cells/well was selected to produce the most prominent signal. The plated cells were incubated with each library compound, washed with PBS, and the Cell Titer-Glo (Promega) reagent was used to detect the number of cells remaining attached in each well. This ATP-based detection has a linear relationship between the luminescent signal and the number of cells per well. Of the 50,000 compounds screened, 86 library compounds (0.172% of screened compounds) were selected at 1.67 μM concentration for the second screening step. […] As a further test of toxicity, DAL was injected intraperitoneally at 100 mg/kg in SCID mice and signs of toxicity including cachexia, ruffled fur, diarrhea, anorexia, skin ulceration, and toxic death were monitored.
# A screening strategy was developed to identify potential agents that target adhesion of endothelial cells or cancer cells to their substrate. […] The initial screening step quantified the number of cells remaining attached to their wells following incubation with each compound and subsequent washing steps. […] The agents that affect cell adhesion can be monitored through remodeling of actin filaments. […] Changes in actin assembly and cell shape after treatment with 12 compounds were determined. […]
# [2] = Pharmacokinetics after intraperitoneal administration; type: in vivo; settings: after i.p. dosing, 100% DMSO formulation, male CD-1 mice
# Text: FIG. 8 is a graph showing pharmacokinetic parameters after intraperitoneal administration of DAL.
# AKT1 = AKT1 (Homo sapiens, UniProt P31749); test: Kinase inhibition screening; type: biochemical; settings: 10-dose, starting at 100 μM, 1 μM ATP
# Procedure: (§1) To determine kinase activity of DAL, various kinases (AKT1, AKT2, AKT3, PKA, PKC alpha, PKC delta, PAK1, EPHB2, EPHB4, p38 alpha, PI3K-alpha, PI3K-beta, PI3K-gamma, PI3K-delta) were screened in a 10-dose IC50 mode with threefold serial dilutions starting at 100 μM. Staurosporine was used as a control starting at 10 μM and the reactions were carried out at 1 μM ATP.
# (§2) Without wishing to be bound by theory, DAL brings about its antivascular effects by destabilizing cell adhesion through the actin cytoskeleton. It was next sought to identify which specific adhesion pathway it targets. Mechanical attachment at cell-cell adherens and tight junctions is regulated by dynamic changes in the actin cytoskeleton. Adherens junctions are composed of E-cadherin/β-catenin complexes and are connected to the actin cytoskeleton via sa-catenin (25-26), while tight junctions consist of transmembrane claudins and occludin and are associated with the actin cytoskeleton via ZO proteins (27-28). Therefore, potential targets of DAL in signaling pathways involved in actin remodeling were evaluated. […] Then, it was sought to determine whether Rho-GTPase family members are targets for DAL due to the disruption of cell adhesion and actin network remodeling along with inhibited motility. Rho-GTPases (e.g., Rac1) plays an important role in actin cytoskeletal organization and is involved in the coordination of cell adhesion (29). Furthermore, Rac1 is responsible for stabilizing endothelial cell junctions by opposing actin remodeling by Rho (30). In order to migrate, cancer cells employ dynamic remodeling of the actin cytoskeleton, form protrusive structures and generate forces necessary to produce cell translocation in the process regulated by Rho-GTPase Rac1. To assess whether DAL can modulate Rac1, RhoA, and Cdc42 activities, affinity purification assays were employed to monitor RhoA and Cdc42/Rac1 activity. The Rho-Binding Domain (RBD) of the Rho effector protein rhotekin and the p21 Binding Domain (PBD) of the Cdc42/Rac effector protein p21 activated kinase 1 (PAK) were applied to pull down active forms of each protein.
# AKT3 = AKT3 (Homo sapiens, UniProt Q9Y243); test: Kinase inhibition screening; type: biochemical; settings: 10-dose, starting at 100 μM, 1 μM ATP
# Procedure: as §1, §2
# EPHB2 = EPHB2 (Homo sapiens, UniProt P29323); test: Kinase inhibition screening; type: biochemical; settings: 10-dose, starting at 100 μM, 1 μM ATP
# Procedure: as §1, §2
# PI3K-beta = PI3K-beta (Homo sapiens, UniProt P42338); test: Kinase inhibition screening; type: biochemical; settings: 10-dose, starting at 100 μM, 1 μM ATP
# Procedure: as §1, §2
# PKC delta = PKC delta (Homo sapiens, UniProt Q05655); test: Kinase inhibition screening; type: biochemical; settings: 10-dose, starting at 100 μM, 1 μM ATP
# Procedure: as §1, §2
# Chain of EPHB2 (P29323 19-1055, species assumed): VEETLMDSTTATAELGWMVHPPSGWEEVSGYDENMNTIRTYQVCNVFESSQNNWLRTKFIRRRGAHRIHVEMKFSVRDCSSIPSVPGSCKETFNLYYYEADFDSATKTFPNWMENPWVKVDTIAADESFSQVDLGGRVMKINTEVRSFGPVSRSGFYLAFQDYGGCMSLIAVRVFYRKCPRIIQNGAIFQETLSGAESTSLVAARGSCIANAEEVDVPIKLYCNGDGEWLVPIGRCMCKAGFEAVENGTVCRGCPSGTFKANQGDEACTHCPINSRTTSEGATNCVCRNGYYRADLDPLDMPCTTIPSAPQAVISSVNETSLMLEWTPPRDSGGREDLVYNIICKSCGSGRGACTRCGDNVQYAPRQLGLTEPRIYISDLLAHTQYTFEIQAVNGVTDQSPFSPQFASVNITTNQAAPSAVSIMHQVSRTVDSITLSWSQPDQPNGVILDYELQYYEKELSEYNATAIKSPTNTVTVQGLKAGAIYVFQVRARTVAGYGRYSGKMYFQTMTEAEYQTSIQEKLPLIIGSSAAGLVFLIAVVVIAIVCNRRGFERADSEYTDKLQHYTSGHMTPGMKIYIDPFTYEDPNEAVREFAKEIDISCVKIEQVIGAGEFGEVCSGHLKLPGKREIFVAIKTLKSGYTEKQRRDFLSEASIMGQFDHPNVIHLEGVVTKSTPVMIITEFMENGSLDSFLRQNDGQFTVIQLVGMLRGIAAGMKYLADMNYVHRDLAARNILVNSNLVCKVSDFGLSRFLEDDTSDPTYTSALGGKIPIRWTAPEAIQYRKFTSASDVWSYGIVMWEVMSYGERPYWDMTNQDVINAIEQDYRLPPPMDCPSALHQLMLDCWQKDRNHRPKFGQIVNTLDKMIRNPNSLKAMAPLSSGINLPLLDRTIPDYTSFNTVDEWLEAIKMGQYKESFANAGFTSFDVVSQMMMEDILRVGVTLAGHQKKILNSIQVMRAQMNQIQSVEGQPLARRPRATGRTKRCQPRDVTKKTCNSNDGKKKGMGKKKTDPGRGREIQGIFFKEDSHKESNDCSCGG
# Chain of AKT3 (Q9Y243 whole entry, species assumed): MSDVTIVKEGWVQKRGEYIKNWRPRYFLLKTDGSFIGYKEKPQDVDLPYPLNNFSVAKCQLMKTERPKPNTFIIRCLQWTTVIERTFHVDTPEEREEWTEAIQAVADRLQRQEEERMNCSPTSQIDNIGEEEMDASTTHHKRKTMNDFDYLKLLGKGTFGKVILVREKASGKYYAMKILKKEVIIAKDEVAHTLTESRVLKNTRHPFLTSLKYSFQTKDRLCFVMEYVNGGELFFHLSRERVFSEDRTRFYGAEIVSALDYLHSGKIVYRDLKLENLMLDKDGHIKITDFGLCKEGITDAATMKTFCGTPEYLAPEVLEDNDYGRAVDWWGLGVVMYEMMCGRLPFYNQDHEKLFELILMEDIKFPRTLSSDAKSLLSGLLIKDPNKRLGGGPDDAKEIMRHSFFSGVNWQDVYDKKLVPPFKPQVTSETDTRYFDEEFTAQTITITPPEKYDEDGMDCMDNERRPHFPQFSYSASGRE
# Chain of AKT1 (P31749 whole entry, species assumed): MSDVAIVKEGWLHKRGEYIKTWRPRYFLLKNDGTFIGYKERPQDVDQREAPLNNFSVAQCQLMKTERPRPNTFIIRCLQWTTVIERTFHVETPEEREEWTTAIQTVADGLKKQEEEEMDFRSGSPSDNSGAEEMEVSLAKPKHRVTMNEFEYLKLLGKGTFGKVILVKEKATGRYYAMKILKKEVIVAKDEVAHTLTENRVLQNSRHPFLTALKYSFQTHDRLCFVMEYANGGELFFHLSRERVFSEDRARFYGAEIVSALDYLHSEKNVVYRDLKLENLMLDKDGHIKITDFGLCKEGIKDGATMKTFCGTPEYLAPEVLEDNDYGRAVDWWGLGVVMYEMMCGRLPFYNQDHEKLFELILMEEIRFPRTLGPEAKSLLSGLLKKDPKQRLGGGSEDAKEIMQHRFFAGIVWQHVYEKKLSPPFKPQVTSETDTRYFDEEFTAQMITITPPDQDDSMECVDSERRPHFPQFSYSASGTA
# Chain of PKC delta (Q05655 whole entry): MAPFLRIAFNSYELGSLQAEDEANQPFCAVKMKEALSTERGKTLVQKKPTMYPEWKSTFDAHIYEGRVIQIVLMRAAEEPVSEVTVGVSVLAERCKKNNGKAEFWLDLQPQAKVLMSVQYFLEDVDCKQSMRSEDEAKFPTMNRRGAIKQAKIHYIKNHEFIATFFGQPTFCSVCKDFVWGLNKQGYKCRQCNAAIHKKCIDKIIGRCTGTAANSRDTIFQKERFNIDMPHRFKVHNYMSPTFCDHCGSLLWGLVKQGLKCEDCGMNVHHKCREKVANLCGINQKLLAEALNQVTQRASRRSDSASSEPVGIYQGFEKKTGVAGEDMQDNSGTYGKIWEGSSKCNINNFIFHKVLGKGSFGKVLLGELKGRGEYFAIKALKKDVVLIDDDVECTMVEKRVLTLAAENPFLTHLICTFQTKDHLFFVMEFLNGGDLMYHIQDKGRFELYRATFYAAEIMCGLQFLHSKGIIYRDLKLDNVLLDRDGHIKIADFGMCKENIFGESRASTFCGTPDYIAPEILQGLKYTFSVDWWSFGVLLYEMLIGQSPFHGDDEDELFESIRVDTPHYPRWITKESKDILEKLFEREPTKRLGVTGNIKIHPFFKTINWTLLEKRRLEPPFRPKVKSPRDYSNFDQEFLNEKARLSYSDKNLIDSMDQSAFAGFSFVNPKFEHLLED
# Chain of PI3K-beta (P42338 whole entry, species assumed): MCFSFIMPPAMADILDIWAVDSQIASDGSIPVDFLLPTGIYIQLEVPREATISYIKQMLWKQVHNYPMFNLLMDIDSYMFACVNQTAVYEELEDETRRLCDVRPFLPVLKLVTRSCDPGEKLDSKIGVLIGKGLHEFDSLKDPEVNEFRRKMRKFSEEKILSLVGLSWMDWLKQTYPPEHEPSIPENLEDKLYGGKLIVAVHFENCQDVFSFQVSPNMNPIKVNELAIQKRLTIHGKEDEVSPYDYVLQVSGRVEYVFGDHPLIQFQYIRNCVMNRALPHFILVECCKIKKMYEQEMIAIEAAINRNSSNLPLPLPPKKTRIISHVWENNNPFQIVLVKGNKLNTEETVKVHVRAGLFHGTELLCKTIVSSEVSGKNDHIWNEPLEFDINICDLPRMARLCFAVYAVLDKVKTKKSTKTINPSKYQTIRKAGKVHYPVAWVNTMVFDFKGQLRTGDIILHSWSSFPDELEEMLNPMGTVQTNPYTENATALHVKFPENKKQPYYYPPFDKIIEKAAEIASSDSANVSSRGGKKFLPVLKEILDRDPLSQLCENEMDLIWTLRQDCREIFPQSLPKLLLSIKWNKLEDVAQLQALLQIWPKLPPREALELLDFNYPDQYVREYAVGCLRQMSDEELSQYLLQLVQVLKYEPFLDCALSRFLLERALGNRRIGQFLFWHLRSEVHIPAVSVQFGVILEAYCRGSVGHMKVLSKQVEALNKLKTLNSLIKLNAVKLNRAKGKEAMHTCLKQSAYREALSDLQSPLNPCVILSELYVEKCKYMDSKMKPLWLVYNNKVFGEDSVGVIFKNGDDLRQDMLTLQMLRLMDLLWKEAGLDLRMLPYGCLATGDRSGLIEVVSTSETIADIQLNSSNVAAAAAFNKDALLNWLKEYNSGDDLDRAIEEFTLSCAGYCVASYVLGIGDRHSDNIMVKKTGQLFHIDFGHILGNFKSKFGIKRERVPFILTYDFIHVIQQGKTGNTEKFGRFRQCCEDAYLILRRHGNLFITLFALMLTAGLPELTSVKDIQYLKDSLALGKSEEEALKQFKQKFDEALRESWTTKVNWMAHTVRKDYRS
# Chain of PI3K-beta (P27986 whole entry partner, species assumed): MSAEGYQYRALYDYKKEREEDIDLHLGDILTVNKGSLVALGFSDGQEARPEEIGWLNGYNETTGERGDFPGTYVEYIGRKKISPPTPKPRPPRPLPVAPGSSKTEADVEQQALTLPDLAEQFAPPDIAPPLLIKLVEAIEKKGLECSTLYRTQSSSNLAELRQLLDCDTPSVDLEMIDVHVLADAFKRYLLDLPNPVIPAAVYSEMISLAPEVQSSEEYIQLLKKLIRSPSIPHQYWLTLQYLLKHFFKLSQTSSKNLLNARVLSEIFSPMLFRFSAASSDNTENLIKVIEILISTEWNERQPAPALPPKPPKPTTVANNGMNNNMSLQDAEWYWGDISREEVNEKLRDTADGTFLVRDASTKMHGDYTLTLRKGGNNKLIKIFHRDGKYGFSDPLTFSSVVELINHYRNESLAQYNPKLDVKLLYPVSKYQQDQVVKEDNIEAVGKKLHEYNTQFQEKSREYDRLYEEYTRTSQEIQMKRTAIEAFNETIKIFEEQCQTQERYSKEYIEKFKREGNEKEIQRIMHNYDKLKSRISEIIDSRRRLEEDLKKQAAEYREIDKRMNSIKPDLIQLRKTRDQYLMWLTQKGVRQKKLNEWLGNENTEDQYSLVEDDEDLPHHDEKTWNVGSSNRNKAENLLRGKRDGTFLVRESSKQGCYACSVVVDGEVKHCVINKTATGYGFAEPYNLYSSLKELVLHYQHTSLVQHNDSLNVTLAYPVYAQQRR
structure (smiles),measurement,setting,value
"CC1(C)C=CC2=C(O1)C(=O)c1ccccc1C2=O [DAL, dehydro-alpha-lapachone]","signs of toxicity (cachexia, ruffled fur, diarrhea, anorexia, skin ulceration, toxic death)",[1],low toxicity; also recorded: no signs of toxicity
same,half-life in plasma,[2],1.7 h
same,effect on kinase AKT1,AKT1,no significant effects
same,effect on kinase AKT3,AKT3,no significant effects
same,effect on kinase EPHB2,EPHB2,no significant effects
same,effect on kinase PI3K-beta,PI3K-beta,no significant effects
same,effect on kinase PKC delta,PKC delta,no significant effects
